From US4783528A, “Steroidal lariat ethers” (University of Miami (Department of Chemistry), priority 1987, dated 1988)

Experiments:
[1] = Cation binding constant (log KS) for K+ in anhydrous methanol at 25° C.; conditions: decadic (log10) logarithm of equilibrium constant lariat ether + cation = complex
Procedure: (§1) As a result, only the macroring itself is expected to provide cation binding sites.
(§2) ^a Binding constants determined in anhydrous methanol solution at
(§3) 25° C. as described in the articles by Dishong et al., and Schultz
(§4) Notes. a. Binding constants determined in anhydrous methanol solution at 25° C. as described in the articles by Dishong et al., and Schultz et al. referred to above.
(§5) The binding constant, usually referred to as KS, is the equilibrium constant for the reaction: lariat ether + cation .revreaction. complex. The values in the table are expressed as decadic (log10) logarithms.

[2] = Cation binding constant (log KS) for Na+ in anhydrous methanol at 25° C.; conditions: decadic (log10) logarithm of equilibrium constant lariat ether + cation = complex
Procedure: as §1, §2, §3, §4, §5

Row | Compound | Cation Binding Constants (log KS), K^+ [1] | Cation Binding Constants (log KS), Na^+ [2]
1 | Cholestanyl (4-aza-18-crown-6)acetate [Compound 7] | 5.78 | 4.58
2 | CC(C)CCC[C@@H](C)[C@H]1CC[C@H]2[C@@H]3CC=C4C[C@@H](OC(=O)N5CCOCCOCCOCCOCCOCC5)CC[C@]4(C)[C@H]3CC[C@]12C [Compound 9, N-(Cholesteryloxycarbonyl)aza-18-crown-6] | 1.78 | 2.07
3 | CC(C)CCC[C@@H](C)[C@H]1CC[C@H]2[C@@H]3CC=C4C[C@@H](OC(=O)CN5CCOCCOCCOCCOCC5)CC[C@]4(C)[C@H]3CC[C@]12C [Compound 4, Cholesteryl (4-aza-15-crown-5)acetate] | 4.03 | 4.10
4 | CC(C)CCC[C@@H](C)[C@H]1CC[C@H]2[C@@H]3CC=C4C[C@@H](OC(=O)CN5CCOCCOCCOCCOCCOCC5)CC[C@]4(C)[C@H]3CC[C@]12C [Compound 5, Cholesteryl (4-aza-18-crown-6) acetate] | 5.75 | 4.56
5 | CC(C)CCC[C@@H](C)[C@H]1CC[C@H]2[C@@H]3CC=C4C[C@@H](OC(=O)N5CCOCCOCCOCCOCC5)CC[C@]4(C)[C@H]3CC[C@]12C [Compound 8, N-(Cholesteryloxycarbonyl)aza-15-crown-5] | < 1.5 | < 1.5
6 | CC(C)CCC[C@@H](C)[C@H]1CC[C@H]2[C@@H]3CC[C@H]4C[C@@H](OC(=O)CN5CCOCCOCCOCCOCC5)CC[C@]4(C)[C@H]3CC[C@]12C [Compound 6, Cholestanyl (4-aza-15-crown-5) acetate] | 4.03 | 4.12
